Values quoted from earlier work, collected in US20020146829A1, “Neutral and anionic colloidal particles for gene delivery” (Aventis Pharmaceuticals Products Inc., priority 2000, published 2002).

Biological target: T1, folate receptor on M109 cells (Mus musculus, UniProt P35846)
T1 construct: endogenous in cells; host or cells: M109 cells
T1 sequence (P35846 25-232): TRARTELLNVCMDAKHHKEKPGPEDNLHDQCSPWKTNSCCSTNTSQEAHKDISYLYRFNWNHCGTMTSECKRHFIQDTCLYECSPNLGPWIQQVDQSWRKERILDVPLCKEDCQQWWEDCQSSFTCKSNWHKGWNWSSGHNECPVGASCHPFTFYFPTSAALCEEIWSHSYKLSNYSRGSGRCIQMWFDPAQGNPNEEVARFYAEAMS

binding to folate receptor: specifically bind
Substance: distearyl-PEG400-Folate [RPR258018]
